Values of other authors as cited in patent US20080131503A1 (priority 2005, published 2008).

Conditions: oral

Systemic availability of HMG-CoA reductase inhibitory activity: approximately 30%
SMILES: CC(C)c1c(C(=O)Nc2ccccc2)c(-c2ccccc2)c(-c2ccc(F)cc2)n1CC[C@@H](O)C[C@@H](O)CC(=O)O [Atorvastatin]
